Literature values as cited in patent US20250235488A1, “COMPOSITIONS AND METHODS FOR PROVIDING HEMATOPOIETIC FUNCTION” (Fred Hutchinson Cancer Center, priority 2010, published 2025).

Legend:
[1] = not given; remark: listed apart in the source

Row | plasma half-life, initial phase ([1]; after rapid IV injection) | plasma half-life, terminal phase ([1]; after rapid IV injection) [h] | dose excreted in the urine within 24 hours ([1]; rapid IV, IM, SQ, IT injection or continuous IV infusion) | Structure (SMILES) | solubility in alcohol | solubility in lipids | solubility in water | CSF concentrations as percentage of concurrent plasma concentrations ([1]; in vivo) | time after which no intact drug is detectable in plasma ([1]; in vivo, iv) [min]
1 |  |  |  | O=NN(CCCl)C(=O)NCCCl [Carmustine] | freely soluble | highly soluble | slightly soluble | 15-70% | 15
2 | about 10 minutes | 1 to 3 | 70-80% | Nc1ccn([C@@H]2O[C@H](CO)[C@@H](O)[C@@H]2O)c(=O)n1 [Cytarabine] |  |  |  |  | 
